The values that follow are results of earlier work, collected in publication PMC11913096, “MBX 2109, A Once-Weekly Parathyroid Hormone Replacement Therapy Prodrug: Phase 1, First-In-Human, Randomized Trial” (The Journal of Clinical Endocrinology and Metabolism, 2024).

Where no end group is shown, it is not given here.

Data set [1] relates to patients with hypoPT. Particulars: once-daily, placebo 5%. As for the experimental part: (§1) Because PTH deficiency is the etiology for chronic hypoPT, hormone replacement therapy with PTH would be the ideal treatment ([1], [2]). However, the short half-lives (t1/2) of unmodified PTH(1-34) and PTH(1-84) peptides necessitate frequent administration to normalize serum calcium levels ([2]). For example, twice-daily subcutaneous (SC) injection of teriparatide, a recombinant PTH(1-34) analogue with a short half-life (∼1 hour) ([2]), was more efficacious than once-daily administration in normalizing serum calcium and reducing hypercalciuria in patients with hypoPT ([9]). Continuous SC (pump ...

How the values of data set [2] were obtained: as §1

Take “palopegteriparatide (SVSEIQLMHNLGKHLNSMERVEWLRKKLQDVHNF; also: methoxy-PEG carrier prodrug, attachment not given here; UniProt P01270 32-65, looked up, fragment) [prodrug of PTH(1-34) conjugated to a methoxypolyethylene glycol (PEG) carrier]”: the “Patients achieving composite primary end point (normalizing serum calcium and eliminating active vitamin D and calcium supplements)” value in data set [1] is 79%. As for teriparatide, the Half-life in data set [2] was approximately 1 h.
